Measured values reported in patent US9879050B2, “Substituted urea depsipeptide analogs as activators of the CLPP endopeptidase” (priority 2013, dated 2018).
≈ marks a conversion by molar mass, not a printed value. Read-outs that look alike come from different tables or passages of the source. *1 amine or outer side, *2 acyl side, *3 side chain or, on linkers, in order; H or OH if unused. Where a SMILES comes first, the peptide text is derived from it. Bridges are numbered along the chain shown (N, C = ends). [ ]: non-standard residue; d: D form. The star is where a group is joined. ξ: configuration not given here. Phe(3,5-F2) = N[C@@H](Cc1cc(F)cc(F)c1)C(=O)O; NH(4-OCF3-phenyl) = FC(F)(F)Oc1ccc(N*)cc1; ξPro(4S-Me) = C[C@@H]1CNC(C(=O)O)C1; aThr = C[C@H](O)[C@H](N)C(=O)O; X1 = O=C(C1COCCN1[*:1])[*:2]; CO = O=C([*:1])[*:2]; ξP = O=C(O)C1CCCN1

Key:
S. pneumoniae R6 = experiment: Minimal inhibitory concentration, microbroth dilution; assay type: cell-based
Procedure: Minimal inhibitory concentrations (“MICs”) were determined using the microbroth dilution method according to Clinical Laboratory Standards Institute (CLSI; National, C.F. C. L. S., Methods for Dilution Antimicrobial Susceptibility Tests for Bacteria Grow aerobically-Seventh Edition: Approved Standard M7-A7, CLSI, Wayne, Pa., USA, 2008) and were read by visual inspection. Two fold serial dilutions of test compound in 100 μL of the appropriate broth media were first prepared in 96-well round bottom microtiter plates (Nalgene Nunc International, Rochester, N.Y., USA). […] The plates were then incubated aerobically at 37° C. All strains were incubated overnight. After incubations, in all cases the MIC was recorded as the lowest concentration of drug that prevented bacterial growth. The bacterial strains for which MIC was determined as described in Table 4.

Sa-ClpP [1] = target: T1, Sa-ClpP (Staphylococcus aureus, UniProt Q2G036); experiment: ADEP displacement fluorescence polarization assay; assay type: binding, S. aureus
T1 construct: made in house; host or cells: E. coli BL21 (DE3)
T1 sequence (Q2G036 whole entry): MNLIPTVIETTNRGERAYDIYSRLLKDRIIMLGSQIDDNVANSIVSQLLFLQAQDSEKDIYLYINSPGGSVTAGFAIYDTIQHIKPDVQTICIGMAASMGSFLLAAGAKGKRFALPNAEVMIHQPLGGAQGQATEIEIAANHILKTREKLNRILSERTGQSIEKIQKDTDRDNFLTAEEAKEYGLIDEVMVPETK
Procedure: A fluorescence polarization (FP) assay was used to determine the activity of the disclosed compounds in displacing an ADEP analogue from ClpP. Briefly, the assay was performed in black 384 well, flat bottom, low volume plates (Greiner Bio-One, Monroe, N.C., catalog #784076). 20 μL of a pre-equilibrated (1 hr, room temperature) master mix (1 μM Sa-ClpP, 2% DMSO (v/v) and 50 nM FP probe in Tris*HCl, pH 8.0)) was pipetted into each well using a Well-Mate (Thermo Scientific, Waltham, Mass.). Sa-ClpP was prepared as described above for the ClpP activation assay. The FP probe was ADEP 2591 (structure shown above). The ADEP 2591 comprises a TAMRA fluorophore linked to a core based on modified ADEP 2378 via a short alkyl linker. Using pin transfer, approximately 0.4 μL (2% v/v DMSO) of each compound or control was added per well. After addition of compounds and controls, plates were allowed to incubate for an additional 120 minutes at room temperature. All assays were performed in triplicate. Polarization was monitored using an EnVision Multilabel reader (Perkin-Elmer, Waltham, Mass.) by exciting the FP probe at 530±25 nm, and monitoring fluorescence intensity of both parallel and perpendicular polarized light at 579±25 nm. Readout was in millipolarization units (mP).
Signal gain and G factors were determined in wells containing 20 μM ADEP 2378, which had been previously verified (data not shown) as containing completely unbound ADEP 2591. Data collected was normalized to values obtained from positive (20 μM ADEP 2378) or negative (DMSO) controls. Curves were fit with non-linear regression using the equation “log [inhibitor]vs. Response-variable slope (four parameters)-symmetrical” in the program Prism 6 (GraphPad Software, La Jolla, Calif. USA, www.graphpad.com). The structures for ADEP 2378 and ADEP 2591 are shown above. ADEP 2378 is (E)-N-((S)-1-(((2R,6S,8aS,14aS,20S,23aS)-2,6-dimethyl-5,8,14,19,23-pentaoxooctadecahydro-1H,5H,14H,19H-pyrido[2,1-i]dipyrrolo[2,1-c:2′,1′-1][1]oxa[4,7,10,13]tetraazacyclohexadecin-20-yl)amino)-1-oxo-3-phenylpropan-2-yl)pent-2-enamide. ADEP 2591 is 5-(3-(3-((6S,9S,11aS,17S,20aS)-6,10-dimethyl-5,8,11,16,20-pentaoxo-17-((S)-2-((E)-pent-2-enamido)-3-phenylpropanamido)hexadecahydro-1H,5H,16H-dipyrrolo[2,1-c:2′,1′-1][1]oxa[4,7,10,13]tetraazacyclohexadecin-9-yl)propyl)thioureido)-2-(6-(dimethylamino)-3-(dimethyliminio)-3H-xanthen-9-yl)benzoate.

Sa-ClpP [2] = target: T1, Sa-ClpP; experiment: ClpP activation, EnzCheck Protease Assay with Bodipy-FL casein (second described method); assay type: biochemical, S. aureus
Procedure: Alternatively, the assay was carried out using EnzCheck Protease Assay (Molecular Probes, Catalog #E6638). The assay was performed in black 384 well, flat bottom, low volume plates (Greiner Bio-One, Monroe, N.C., catalog #784076). 10 μL of Tris.HCl buffer, pH 8.0 with 0.01% Triton X-100 was pipetted into each well using a Well-Mate (Thermo Scientific, Waltham, Mass.). 0.4 μL test compounds or controls (2% DMSO v/v) were added to each well using a Biomek FX liquid handling robot (Beckman Coulter, Indianapolis Ind.). After addition of test compounds and controls, 10 μL of master mix containing 2 μM Sa-ClpP and 2 μM substrate (Bodipy-FL labeled casein) in Tris*HCl buffer, pH 8.0 with 0.01% (v/v) Triton X-100, was pipetted into each well. All assays were performed in triplicate, under linear velocity conditions. Increase in fluorescent signal following activation of Sa-ClpP by test compounds and controls was measured over time period of 30 mins using filters with excitation at 485±15 nm and emission at 520±25 nm on a PHERAstar FS Multilabel reader (BMG, Cary, N.C.). […] Data analysis was done by measuring rate of casein degradation over time (slopes). Computed degradation rates (slopes) were normalized to positive (ADEP4) or negative (DMSO) controls. Using nonlinear regression curve fitting EC50 values and % activation were determined using the equation “log [agonist]vs. Response-variable slope (four parameters)-symmetrical” in the program Prism 6 (GraphPad Software, La Jolla, Calif. USA, www.graphpad.com).

[3] = Cytotoxicity assay, CellTiter-Glo cell viability; assay type: cell-based; conditions: African green monkey
Procedure: Cytotoxicity was determined by determining the effect of compounds on cell viability. Vero (kidney epithelial cells; ATCC CCL-81) monolayers were trypsinized and 5000 cells/well were seeded (10-15% confluency) into white-wall, flat bottom 96 well microwell plates (Corning) using enriched Dulbecco's Modified Eagle's Medium (Hyclone: DMEM/High Glucose) containing 10% Fetal Bovine Serum (ATCC-30-2020). Plates were incubated overnight at 37° C. in the presence of 5% CO2. Drug-free media was then replaced with media containing serial dilutions of test compound or DMSO carrier. After an additional 72 hours of incubation, viability was indirectly measured using the CellTiter-Glo® Luminescent Cell Viability (Promega) assay. Assay plates were read at peak emission wavelength of 560 nm using a EnVision® Multilabel Plate Reader (Perkin Elmer) or PHERAstar FS Multilabel reader (BMG, Cary, N.C.). […] USA, www.graphpad.com]. For each experiment, compounds were tested in duplicate. IC50 values presented are the range of two biologically independent experiments.

S. aureus USA 300 ΔClpP = experiment: Minimal inhibitory concentration, microbroth dilution; assay type: cell-based, Staphylococcus aureus; conditions: ClpP inactivated strain
Procedure: Minimal inhibitory concentrations (“MICs”) were determined using the microbroth dilution method according to Clinical Laboratory Standards Institute (CLSI; National, C.F. C. L. S., Methods for Dilution Antimicrobial Susceptibility Tests for Bacteria Grow aerobically-Seventh Edition: Approved Standard M7-A7, CLSI, Wayne, Pa., USA, 2008) and were read by visual inspection. Two fold serial dilutions of test compound in 100 μL of the appropriate broth media were first prepared in 96-well round bottom microtiter plates (Nalgene Nunc International, Rochester, N.Y., USA). An equivalent volume (100 μL) of bacterial broth inocula containing approximately 10^5 bacterial cfu/mL was added to each well to give final concentrations of test compound starting at 200 μM. The plates were then incubated aerobically at 37° C. All strains were incubated overnight. After incubations, in all cases the MIC was recorded as the lowest concentration of drug that prevented bacterial growth. The bacterial strains for which MIC was determined as described in Table 4.

[4] = Streptococcus pneumoniae, R6; read-out: Minimal Inhibitory Concentration S. pneumoniae R6

Structure (SMILES)	MIC (S. pneumoniae R6; [4])	IC50 (Sa-ClpP [1])	EC50 (Sa-ClpP [2])	IC50 at 72 h [3]	Minimal Inhibitory Concentration S. aureus USA 300 ΔClpP (S. aureus USA 300 ΔClpP)	IC50 at 72 h ([3]; Vero kidney epithelial cells (ATCC CCL-81), Vero cells, 72 hours, read-out: Cytotoxicity IC50)	MIC (S. pneumoniae R6; Streptococcus pneumoniae, R6, read-out: Minimal Inhibitory Concentration S. pneumoniae R6)
C[C@H]1CC2C(=O)O[C@@H](C)[C@H](NC(=O)[C@H](Cc3cc(F)cc(F)c3)NC(=O)Nc3ccc(OC(F)(F)F)cc3)C(=O)N3CCCC3C(=O)N3CCOCC3C(=O)N[C@@H](C)C(=O)N2C1 (stereo partly drawn) [Compound 34, (S)-3-(3,5-Difluorophenyl)-2-(3-(4-(Trifluoromethoxy)Phenyl)Ureido)-N-((6aS,12S,13S,15aS,17S,21S,23aS)-13,17,21-Trimethyl-6,11,15,20,23-Pentaoxooctadecahydro-6H,11H,15H-[1,4]Oxazino[3,4-I]Dipyrrolo[2,1-C:2′,1′-L][1]Oxa[4,7,10,13]Tetraazacyclohexadecin-12-Yl)Propanamide] ({NH(4-OCF3-phenyl)-CO}-[Phe(3,5-F2)][aThr][ξP][X1]A[ξPro(4S-Me)]; ester 2-C)	0.049 µM (≈ 0.0431 µg/mL)	6.1 ± 0.4 µM	330 ± 10 nM	26 ± 2.6 µM	50 µM	–	–
C[C@H]1CC2C(=O)O[C@@H](C)[C@H](NC(=O)[C@H](Cc3cc(F)cc(F)c3)NC(=O)Nc3ccc(OC(F)(F)F)cc3)C(=O)N3CCCC3C(=O)N(C)[C@@H](C)C(=O)N[C@@H](C)C(=O)N2C1 (stereo partly drawn) [Compound 28, (2S)-3-(3,5-Difluorophenyl)-N-((2S,6S,9S,11aS,17S,18S)-2,6,9,10,18-Pentamethyl-5,8,11,16,20-Pentaoxohexadecahydro-1H,5H,16H-Dipyrrolo[2,1-C:2′,1′-L][1]Oxa 1[4,7,10,13]Tetraazacyclohexadecin-17-Yl)-2-(3-(4-(Trifluoromethoxy)Phenyl)Ureido)Propanamide]	0.029 µM (≈ 0.0247 µg/mL)	5.6 ± 0.2 µM	190 ± 10 nM	16.1 ± 2.4 µM	–	–	–
C[C@@H]1CC2C(=O)O[C@@H](C)[C@H](NC(=O)[C@H](Cc3cc(F)cc(F)c3)NC(=O)Nc3ccc(OC(F)(F)F)cc3)C(=O)N3CCCC3C(=O)N3CCCCC3C(=O)N[C@@H](C)C(=O)N2C1 (stereo partly drawn) [Compound 40, (S)-3-(3,5-Difluorophenyl)-2-(3-(4-(Trifluoromethoxy)Phenyl)Ureido)-N-((2R,6S,8aS,14aS,20S,21S,23aS)-2,6,21-Trimethyl-5,8,14,19,23-Pentaoxooctadecahydro-1H,5H,14H,19H-Pyrido [2,1-I]Dipyrrolo[2,1-C:2′,1′-L][1]Oxa[4,7,10,13]Tetraazacyclohexadecin-20-Yl)Propanamide]	0.1 µM (≈ 0.0878 µg/mL)	12.7 ± 0.7 µM	360 ± 30 nM	43.8 ± 5.1 µM	25 µM	–	–
C[C@H]1CC2C(=O)OC[C@H](NC(=O)[C@H](Cc3ccccc3)NC(=O)Nc3ccc(OC(F)(F)F)cc3)C(=O)N3CCCC3C(=O)N3CCCCC3C(=O)N[C@@H](C)C(=O)N2C1 (stereo partly drawn) [Compound 44, (S)—N-((2S,6S,8aS,14aS,20S,23aS)-2,6-Dimethyl-5,8,14,19,23-Pentaoxooctadecahydro-1H,5H,14H,19H-Pyrido[2,1-I]Dipyrrolo[2,1-C:2′,1′-L][1]Oxa[4,7,10,13]Tetraazacyclohexadecin-20-Yl)-3-Phenyl-2-(3-(4-(Trifluoromethoxy)Phenyl)Ureido)Propanamide]	0.1 µM (≈ 0.0828 µg/mL)	6.76 ± 0.3 µM	280 ± 10 nM	–	50 µM	83.8 ± 6.6 µM	–
C[C@H]1CC2C(=O)O[C@@H](C)[C@H](NC(=O)[C@H](Cc3cc(F)cc(F)c3)NC(=O)Nc3ccc(OC(F)(F)F)cc3)C(=O)N3C[C@H](O)CC3C(=O)N(C)[C@@H](C)C(=O)N[C@@H](C)C(=O)N2C1 (stereo partly drawn) [Compound 32, (S)-3-(3,5-Difluorophenyl)-N-((2S,6S,9S,11aS,13R,17S,18S,20aS)-13-Hydroxy-2,6,9,10,18-Pentamethyl-5,8,11,16,20-Pentaoxohexadecahydro-1H,5H,16H-Dipyrrolo[2,1-C:2′,1′-L][1]Oxa[4,7,10,13]Tetraazacyclohexadecin-17-Yl)-2-(3-(4-(Trifluoromethoxy)Phenyl)Ureido)Propanamide]	0.049 µM (≈ 0.0425 µg/mL)	7 ± 0.4 µM	400 ± 10 nM	28.3 ± 0.6 µM	100 µM	–	–
CN[C@@H]1[C@H](O)[C@H](NC)[C@H]2O[C@@]3(O)C(=O)C[C@@H](C)O[C@H]3O[C@@H]2[C@H]1O [Spectinomycin, spectinomycin, reference compound]	–	–	–	–	25 µM	–	6.3 µM (≈ 2.09 µg/mL)
